{"source": "patent US8507219B2", "about": "“Method of treating inflammation with statins” (MUSC Foundation for Research Development, priority 1997, dated 2013)", "key": {"[1]": {"assay": "Plasma total cholesterol in X-ALD patients on lovastatin", "type": "in vivo, human", "settings": "individual patients, at six months (Patients 1, 2, 3, 6, 7), four months (Patient 4), three months (Patient 5)"}, "[2]": {"test_system": "astrocytes, microglia or macrophages", "text": "Cell viability Cytotoxic effects of the inhibitors were deter-mined by measuring the cell viability by Trypan blue exclusion."}, "[3]": {"settings": "human, in vivo"}, "[4]": {"test_system": "sterol synthesis", "settings": "Sinensky et al., 1991; read-out: IC50 for inhibition of sterol synthesis; cited from earlier work"}, "[5]": {"test_system": "TNF-α production in rat resident macrophages", "assay": "LPS-/IFN-γ-induced TNF-α production (ELISA) in rat macrophages", "type": "cell-based", "settings": "for inhibition at 20000 µM: Rattus norvegicus, Macrophage", "experimental": "Resident macrophages cultured in serum-free RPMI 1640 medium received 20 mM NAC or 100 μM PDTC 2 h before the addition of stimuli. When stimuli were used separately their concentrations were: LPS, 1.0 μg/ml; IFN-γ, 200 U/ml, and when they were used together, their concentrations were: LPS, 0.2 μg/ml; IFN-γ, 50 U/ml. Supernatants were collected 24 h after the addition of stimuli to measure TNF-α concentration using ELISA as described."}, "[6]": {"test_system": "ceramide production in rat primary astrocytes", "assay": "Degradation of sphingomyelin to ceramide (DAG kinase assay, HPTLC) in rat primary astrocytes", "type": "cell-based", "settings": "10 mM NAC or 100 μM PDTC 1 h before TNF-α or IL-1β (50 ng/ml), diamide 0.5 mM or aminotriazole 5 mM", "how_it_was_run": "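About 1.0×10^6 cells were exposed to cytokines with or without antioxidants for various periods, then lipids were extracted. Sphingomyelin was separated by HPTLC and quantified by densitometry. Ceramide was phosphorylated with DAG kinase and [γ-^32P]ATP, and ceramide 1-phosphate was resolved by TLC and quantified by autoradiography/densitometry, expressed as arbitrary absorbance units or percent change.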"}, "[7]": {"test_system": "rat primary microglia, oligodendrocytes and C6 glial cells", "assay": "TNF-α-induced ceramide production in rat primary microglia, oligodendrocytes and C6 glial cells", "type": "cell-based", "settings": "10 mM NAC 1 h, TNF-α 50 ng/ml"}, "[8]": {"test_system": "cholesterol synthesis in rat primary astrocytes"}, "[9]": {"test_system": "X-ALD fibroblasts"}}, "note": "Several values for one entry are separate records, joined by “and”; a condition that tells them apart may be missing. Identical values can stand only once. Entries after “also recorded” stand apart in the source; their conditions may differ. Like-named read-outs stand apart in the source and are kept apart here.", "data": [{"compound": "CC[C@H](C)C(=O)O[C@H]1C[C@@H](C)C=C2C=C[C@H](C)[C@H](CC[C@@H]3C[C@@H](O)CC(=O)O3)[C@H]21", "note": "[Lovastatin]", "values": [{"measurement": "Plasma Total Cholesterol After Treatment", "setting": "[1]; after four months of treatment", "result": 167, "unit": "mg/dL"}, {"measurement": "Plasma Total Cholesterol After Treatment", "setting": "[1]; after six months of treatment", "result": "158 mg/dL and 204 mg/dL and 230 mg/dL and 183 mg/dL and 96 mg/dL"}, {"measurement": "viability (trypan blue exclusion)", "setting": "[2]", "result": "had no effect on the viability of astrocytes, microglia, or macrophages"}, {"measurement": "viability (trypan blue exclusion)", "setting": "[2]; rat", "result": "none of the compounds lovastatin, mevastatin, NaPA, TNF-α, IL-1β, IFN-γ, or LPS had a significant effect on the viability"}, {"measurement": "adverse events leading to withdrawal", "setting": "[3]", "result": "persistent diarrhea and a marked elevation of serum creatine kinase levels"}, {"measurement": "IC50", "setting": "[4]", "result": 10, "unit": "nM"}]}, {"compound": "CC(=O)N[C@@H](CS)C(=O)O", "note": "[NAC, N-acetyl cysteine]", "values": [{"measurement": "TNF-α", "setting": "[5]; LPS 0.2 μg/ml + IFN-γ 50 U/ml, 20 mM NAC or 100 μM PDTC 2 h before, 24 h", "result": "2.3 ± 0.2", "unit": "ng/24 h/mg protein"}, {"measurement": "TNF-α", "setting": "[5]; LPS 1.0 μg/ml, 20 mM NAC or 100 μM PDTC 2 h before, 24 h", "result": "1.6 ± 0.3", "unit": "ng/24 h/mg protein"}, {"measurement": "inhibition at 20000 µM", "setting": "[5]; LPS 0.2 μg/ml + IFN-γ 50 U/ml, 20 mM NAC or 100 μM PDTC 2 h before", "result": 93, "unit": "%"}, {"measurement": "inhibition at 20000 µM", "setting": "[5]; LPS 1.0 μg/ml, 20 mM NAC or 100 μM PDTC 2 h before", "result": 92, "unit": "%"}, {"measurement": "TNF-α", "setting": "[5]; antioxidant alone (20 mM NAC or 100 μM PDTC), no stimulus", "result": "0.6 ± 0.2", "unit": "ng/24 h/mg protein"}, {"measurement": "degradation of sphingomyelin to ceramide / ceramide production", "setting": "[6]", "result": "potentially blocked the decrease in sphingomyelin as well as the increase in ceramide; also recorded: blocked diamide-mediated decrease in GSH level and induction of ceramide production; also recorded: blocked the ATZ-mediated increase in ceramide production"}, {"measurement": "TNF-α-induced production of ceramide", "setting": "[7]", "result": "potently blocked the TNF-α-induced production of ceramide in microglia, oligodendrocytes and C6 glial cells; also recorded: potently blocked the TNF-α-induced production of ceramide in microglia, oligodendrocytes, and C6 glial cells"}]}, {"compound": "O=C([O-])Cc1ccccc1.[Na+]", "note": "[NaPA, sodium salt of phenylacetic acid]", "values": [{"measurement": "inhibition of the synthesis of cholesterol", "setting": "[8]", "result": "64±5.3", "unit": "%"}, {"measurement": "cytotoxicity at higher doses", "setting": "[9]", "result": "cytotoxic to the X-ALD fibroblasts"}]}]}
